From patent US10106534B2 (CELGENE QUANTICEL RESEARCH, INC., priority 2014, dated 2018)
Counter-ions that a name gives are not always drawn.

Experiments:
JMJD2C = JMJD2C (Homo sapiens (Human), UniProt Q9H3R0); test: In vitro enzyme inhibition assay for JMJD2C activity (TR-FRET); format: biochemical
In short: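 Demethylation product H3K9me2 quantified by TR-FRET ratio 665/615 after EDTA stop and 1 h with Eu-anti-H3K9me2 and streptavidin-APC; IC50 by curve fit. Reaction: 0.3 nM JMJD2C (AA 2-372, baculovirus), 2 μM α-ketoglutarate, 300 nM biotin-H3K9me3 peptide, pH 7.3 HEPES with Fe(II)/ascorbate, 30 min room temperature.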

[1] = test system: KYSE-150 esophageal carcinoma cell line; test: In vitro cell-based assay: cellular proliferation via BrdU incorporation (ELISA); design: species or system human; settings: Homo sapiens, KYSE-150, 168 hours compound incubation
In short: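 BrdU incorporation during S-phase, detected colorimetrically at 450 nm by peroxidase ELISA, measured proliferation after 168 h compound exposure.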

JMJD2C, sequence (Q9H3R0 2-372): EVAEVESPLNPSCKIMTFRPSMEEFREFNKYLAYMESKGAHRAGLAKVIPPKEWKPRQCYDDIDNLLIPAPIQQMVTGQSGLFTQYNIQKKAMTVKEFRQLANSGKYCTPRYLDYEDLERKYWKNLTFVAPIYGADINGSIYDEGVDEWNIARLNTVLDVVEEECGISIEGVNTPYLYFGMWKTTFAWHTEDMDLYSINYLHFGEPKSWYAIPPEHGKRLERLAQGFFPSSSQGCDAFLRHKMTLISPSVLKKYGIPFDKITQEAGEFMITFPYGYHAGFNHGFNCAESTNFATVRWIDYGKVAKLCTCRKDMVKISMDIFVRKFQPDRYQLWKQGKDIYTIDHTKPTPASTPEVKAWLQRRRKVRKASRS

IC50 (JMJD2C) [nM]	IC50 [1] [nM]	SMILES
1000 to 10000	≤ 100	Cc1ccc(Sc2ccc3c(c2)CCC[C@H]3CNc2cnccc2C(=O)O)cc1 [Example 79, 3-({[(1R)-6-[(4-methylphenyl)sulfanyl]-1,2,3,4-tetrahydronaphthalen-1-yl]methyl}amino)pyridine-4-carboxylic acid]
100 to 1000	1000 to 10000	O=C(O)c1ccncc1NCC1CCCc2cc(Sc3ccccn3)ccc21 (centres unmarked) [Example 80, 3-({[6-(pyridin-2-ylsulfanyl)-1,2,3,4-tetrahydronaphthalen-1-yl]methyl}amino)pyridine-4-carboxylic acid]
100 to 1000	> 10000	O=C(O)c1ccncc1NC[C@@H]1CCCc2cc(S(=O)(=O)c3ccccc3)ccc21 [Example 82, 3-({[(1R)-6-(benzenesulfonyl)-1,2,3,4-tetrahydronaphthalen-1-yl]methyl}amino)pyridine-4-carboxylic acid]
100 to 1000	> 10000	Cc1ccc(S(=O)(=O)c2ccc3c(c2)CCC[C@H]3CNc2cnccc2C(=O)O)cc1 [Example 84, 3-({[(1R)-6-(4-methylbenzenesulfonyl)-1,2,3,4-tetrahydronaphthalen-1-yl]methyl}amino)pyridine-4-carboxylic acid]
100 to 1000	> 10000	Cc1cccc(S(=O)(=O)c2ccc3c(c2)CCC[C@H]3CNc2cnccc2C(=O)O)c1 [Example 86, 3-({[(1R)-6-(3-methylbenzenesulfonyl)-1,2,3,4-tetrahydronaphthalen-1-yl]methyl}amino)pyridine-4-carboxylic acid]
100 to 1000	> 10000	O=C(O)c1ccncc1NCC1CCCc2cc(C3CCOCC3)ccc21 (centres unmarked) [Example 88, 3-({[6-(oxan-4-yl)-1,2,3,4-tetrahydronaphthalen-1-yl]methyl}amino)pyridine-4-carboxylic acid]
100 to 1000	1000 to 10000	CCc1ccc2c(c1)CCC[C@H]2CNc1cnccc1C(=O)O [Example 91, 3-({[(1R)-6-ethyl-1,2,3,4-tetrahydronaphthalen-1-yl]methyl}amino)pyridine-4-carboxylic acid]
100 to 1000	1000 to 10000	O=C(O)c1ccncc1NCC1CCCc2c1ccc1c2OCC1 (centres unmarked) [Example 92, 3-({2H,3H,6H,7H,8H,9H-naphtho[1,2-b]furan-6-ylmethyl}amino)pyridine-4-carboxylic acid]
100 to 1000	1000 to 10000	Cc1cc2c(cc1C)C(CNc1cnccc1C(=O)O)CCO2 (centres unmarked) [Example 93, 3-{[(6,7-dimethyl-3,4-dihydro-2H-1-benzopyran-4-yl)methyl]amino}pyridine-4-carboxylic acid]
100 to 1000	100 to 1000	COc1cc2c(cc1C)C(CNc1cnccc1C(=O)O)CCC2 (centres unmarked) [Example 94, 3-{[(6-methoxy-7-methyl-1,2,3,4-tetrahydronaphthalen-1-yl)methyl]amino}pyridine-4-carboxylic acid]
100 to 1000	> 10000	COc1cc2c(c(OC)c1)C(CNc1cnccc1C(=O)O)CCC2 (centres unmarked) [Example 95, 3-{[(6,8-dimethoxy-1,2,3,4-tetrahydronaphthalen-1-yl)methyl]amino}pyridine-4-carboxylic acid]
100 to 1000	1000 to 10000	COc1cc2c(cc1F)[C@H](CNc1cnccc1C(=O)O)CCC2 [Example 97, 3-({[(1R)-7-fluoro-6-methoxy-1,2,3,4-tetrahydronaphthalen-1-yl]methyl}amino)pyridine-4-carboxylic acid]
100 to 1000	≤ 100	Cc1ccccc1-c1ccc2c(c1)OCC[C@H]2CNc1cnccc1C(=O)O [Example 101, 3-({[(4R)-7-(2-methylphenyl)-3,4-dihydro-2H-1-benzopyran-4-yl]methyl}amino)pyridine-4-carboxylic acid]
100 to 1000	100 to 1000	COc1ccc(F)cc1-c1ccc2c(c1)OCC[C@H]2CNc1cnccc1C(=O)O [Example 102, 3-({[(4R)-7-(5-fluoro-2-methoxyphenyl)-3,4-dihydro-2H-1-benzopyran-4-yl]methyl}amino)pyridine-4-carboxylic acid]
100 to 1000	100 to 1000	CN(c1ccc(C#N)cc1)c1ccc2c(c1)CCC[C@H]2CNc1cnccc1C(=O)O [Example 103, 3-({[(1R)-6-[(4-cyanophenyl)(methyl)amino]-1,2,3,4-tetrahydronaphthalen-1-yl]methyl}amino)pyridine-4-carboxylic acid]
100 to 1000	100 to 1000	CN(c1ccc2c(c1)OCC[C@H]2CNc1cnccc1C(=O)O)c1ccc(F)cc1F [Example 104, 3-({[(4R)-7-[(2,4-difluorophenyl)(methyl)amino]-3,4-dihydro-2H-1-benzopyran-4-yl]methyl}amino)pyridine-4-carboxylic acid]
100 to 1000	≤ 100	Cc1cccc(N(C)c2ccc3c(c2)OCC[C@H]3CNc2cnccc2C(=O)O)c1 [Example 105, 3-({[(4R)-7-[methyl(3-methylphenyl)amino]-3,4-dihydro-2H-1-benzopyran-4-yl]methyl}amino)pyridine-4-carboxylic acid]
100 to 1000	100 to 1000	O=C(O)c1ccncc1NC[C@@H]1CCCc2cc(N3CCCC3)ccc21 [Example 106, 3-({[(1R)-6-(pyrrolidin-1-yl)-1,2,3,4-tetrahydronaphthalen-1-yl]methyl}amino)pyridine-4-carboxylic acid]
100 to 1000	100 to 1000	CN(c1cc(F)cc(F)c1)c1ccc2c(c1)OCC[C@H]2CNc1cnccc1C(=O)O [Example 109, 3-({[(4R)-7-[(3,5-difluorophenyl)(methyl)amino]-3,4-dihydro-2H-1-benzopyran-4-yl]methyl}amino)pyridine-4-carboxylic acid]
1000 to 10000	≤ 100	CN(c1cccc(Cl)c1)c1ccc2c(c1)OCC[C@H]2CNc1cnccc1C(=O)O [Example 110, 3-({[(4R)-7-[(3-chlorophenyl)(methyl)amino]-3,4-dihydro-2H-1-benzopyran-4-yl]methyl}amino)pyridine-4-carboxylic acid]
100 to 1000	100 to 1000	Cc1ccccc1N(C)c1ccc2c(c1)OCC[C@H]2CNc1cnccc1C(=O)O [Example 111, 3-({[(4R)-7-[methyl(2-methylphenyl)amino]-3,4-dihydro-2H-1-benzopyran-4-yl]methyl}amino)pyridine-4-carboxylic acid]
100 to 1000	1000 to 10000	COc1cc(N(C)c2ccc3c(c2)OCC[C@H]3CNc2cnccc2C(=O)O)ccc1F [Example 112, 3-({[(4R)-7-[(4-fluoro-3-methoxyphenyl)(methyl)amino]-3,4-dihydro-2H-1-benzopyran-4-yl]methyl}amino)pyridine-4-carboxylic acid]
100 to 1000	100 to 1000	COc1cc(N(C)c2ccc3c(c2)CCC[C@H]3CNc2cnccc2C(=O)O)ccc1F [Example 114, 3-({[(1R)-6-[(4-fluoro-3-methoxyphenyl)(methyl)amino]-1,2,3,4-tetrahydronaphthalen-1-yl]methyl}amino)pyridine-4-carboxylic acid]
100 to 1000	100 to 1000	CN(c1cccc(C#N)c1)c1ccc2c(c1)CCC[C@H]2CNc1cnccc1C(=O)O [Example 115, 3-({[(1R)-6-[(3-cyanophenyl)(methyl)amino]-1,2,3,4-tetrahydronaphthalen-1-yl]methyl}amino)pyridine-4-carboxylic acid]
100 to 1000	100 to 1000	COc1ccccc1-c1ccc2c(c1)OCC[C@H]2CNc1cnccc1C(=O)O [Example 116, 3-({[(4R)-7-(2-methoxyphenyl)-3,4-dihydro-2H-1-benzopyran-4-yl]methyl}amino)pyridine-4-carboxylic acid]
100 to 1000	100 to 1000	CN(c1cccc(C#N)c1)c1ccc2c(c1)OCC[C@H]2CNc1cnccc1C(=O)O [Example 117, 3-({[(4R)-7-[(3-cyanophenyl)(methyl)amino]-3,4-dihydro-2H-1-benzopyran-4-yl]methyl}amino)pyridine-4-carboxylic acid]
100 to 1000	100 to 1000	CN(c1ccc(C#N)cc1)c1ccc2c(c1)OCC[C@H]2CNc1cnccc1C(=O)O [Example 119, 3-({[(4R)-7-[(4-cyanophenyl)(methyl)amino]-3,4-dihydro-2H-1-benzopyran-4-yl]methyl}amino)pyridine-4-carboxylic acid]
100 to 1000	100 to 1000	CN(CC1CC1)c1ccc2c(c1)CCC[C@H]2CNc1cnccc1C(=O)O [Example 120, 3-({[(1R)-6-[(cyclopropylmethyl)(methyl)amino]-1,2,3,4-tetrahydronaphthalen-1-yl]methyl}amino)pyridine-4-carboxylic acid]
100 to 1000	≤ 100	COc1cccc(N(C)c2ccc3c(c2)CCC[C@H]3CNc2cnccc2C(=O)O)n1 [Example 121, 3-({[(1R)-6-[(6-methoxypyridin-2-yl)(methyl)amino]-1,2,3,4-tetrahydronaphthalen-1-yl]methyl}amino)pyridine-4-carboxylic acid]
100 to 1000	1000 to 10000	N#Cc1ccccc1-c1ccc2c(c1)OCC[C@H]2CNc1cnccc1C(=O)O [Example 124, 3-({[(4R)-7-(2-cyanophenyl)-3,4-dihydro-2H-1-benzopyran-4-yl]methyl}amino)pyridine-4-carboxylic acid]

SMILES	IC50 (JMJD2C) [nM]	IC50 [1] [nM]
Cc1cc(-c2ccc3c(c2)CCCC3CNc2cnccc2C(=O)O)ccn1 (centres unmarked) [Example 89, 3-({[6-(2-methylpyridin-4-yl)-1,2,3,4-tetrahydronaphthalen-1-yl]methyl}amino)pyridine-4-carboxylic acid, hydrochloride]	100 to 1000	> 10000
